From patent publication US8883504B2, “Cell differentiation suppressing agent, method of culturing cells using the same, culture solution, and cultured cell line” (Asahi Kasei Kabushiki Kaisha, priority 2003, dated 2014)

Test system: Oct-3/4 gene
Assay: Oct-3/4 gene expression level by real time PCR (ES cell differentiation inhibition assay 2)
Type: cell-based, mouse
Details: D3ES cells, 7 days; for expression of Oct-3/4 gene in comparison with ES cells cultured in the medium without the differentiation inhibiting agent: GAPDH internal standard, FIG. 6; for effect of keeping the expression of the Oct-3/4 gene relative to ESGRO: compared with 1,000 units/mL of ESGRO
Method: For the D3ES cells prepared by the method described in (3) preparation of a mouse ES cell of Example 1, 8×10^4 cells were seeded in a 10 cm-diameter cell culture dish coated previously with a 0.1% aqueous gelatin solution to make 10 mL of the ES cell assay medium. 1 mL of the differentiation inhibiting agent A to F, which were dissolved in dimethylsulfoxide (DMSO) or culture medium or their mixture to make 40 μg/mL per each dish, or ESGRO, which was adjusted to make 10^4 unit/mL, was added, and culturing was carried out at 37° C. in 5% […] incubator for 7 days. To the culture medium was added DMSO to make the final concentration 0.1% or lower.
A total RNA was extracted from the ES cells cultured by the method described in (1) ES cell differentiation inhibition assay 2 as described above, by using ISOGEN (K.K. Nippon Gene, Japan made) by the attached method. First, the medium was removed from the dish after the culture, the cells were washed twice with 10 mL of PBS, and dissolved in 1 mL of ISOGENE. After leaving stand at room temperature for 5 minutes, the solution was collected in a 1.5 mL Eppendorf tube. 0.2 mL of chloroform (Wako Pure Chemical Industries made) was added, shaken for 15 seconds and, then, left stand at room temperature for 2 or 3 minutes. The solution was centrifuged at 4° C. at 10000 rpm for 10 minutes by using a micro centrifuge (TOMY SEIKO Corp. made). 400 μL of the supernatant was transferred to a fresh 1.5 mL Eppendorf tube, 500 μL of isopropanol (Wako Pure, Chemical Industries made) was added, and left stand at room temperature for 10 minutes, and, then, centrifuged at 4° C. at 10000 rpm for 10 minutes by using the micro centrifuge. After the supernatant was removed, 1 mL of a 70% aqueous ethanol solution was added followed by shaking and, then, centrifugation was carried out at 4° C. at 10000 rpm for about 5 minutes by using, the micro centrifuge. After the supernatant was removed, a precipitation was dried and dissolved in 30 μL of distilled water to obtain the total RNA solution.
2 μg of the thus obtained total RNA was used as a template to synthesize a cDNA according to the attached protocol by using Deoxyribonuclease I (Amplification Grade)(Invitrogen Corp. made), Oligo(dT) 12-18 primer (Invitrogen Corp. made, 18418-012) and Omniscript reverse transcriptase (QIAGEN Corp, made). Thus, a reaction solution was prepared by adding 1 μL of 10× DNaseI Reaction Buffer, 1 μL of 10× DNaseI (all were made by Invitrogen Corp.) and distilled water to 2 μg of total RNA to make 10 μL in total, and the mixture was incubated at room temperature for 10 minutes. 1 μL of 25 mM EDTA solution was added and heated at 65° C. for 10 minutes. The mixture was cooled to room temperature, and then, 2 μL of 10× Buffer RT, 2 μL of 5 mM dNTP Mix, 2 μL of Oligo(dT) 12-18 primer, 0.25 μL of RNaseOUT (Invitrogen Corp. made, 10777-019) and 1 μL of Omniscript Reverse Transcriptase were added, and RNase-free purified water was added to give the total volume of 20 μL, and the mixture was incubated at 37° C. for 60 minutes to obtain cDNA solution. A portion of the synthesized cDNA obtained in such the way was diluted 5 folds with distilled water, and 2 μL of the solution was used as the template to conduct PCR by using Light Cycler-Fast Start DNA Master SYBR Green I Kit (Roche Diagnostics Corp. made) according to the attached protocol. The expression levels of the Oct-3/4 gene and glyceraldehyde-3-phosphate dehydrogenase (GAPDH) gene as the internal standard were measured. For amplifying the Oct-3/4 gene, sense primer OCT3 up (SEQ ID No.: 1) and antisense primer Oct3 down (SEQ ID No.: 2) were used, and for amplifying the GAPDH gene, sense primer GAPDH up (SEQ ID No.: 3) and antisense primer GAPDH down (SEQ ID No.: 4) were used. The composition of the PCR reaction solution and the reaction condition will be each presented below.

| SMILES | expression of Oct-3/4 gene in comparison with ES cells cultured in the medium without the differentiation inhibiting agent | effect of keeping the expression of the Oct-3/4 gene relative to ESGRO |
| --- | --- | --- |
| COc1ccc(N=NC(C(N)=O)=C2NC(C)(C)Cc3ccccc32)cc1 [F, 2-(3,3-dimethyl-3,4-dihydro-2H-isoquinoline-1-ylidene)-2-(4-methoxy-phenylazo)-acetamide] | significantly promoted | comparable with 1,000 units/mL of ESGRO |
| CC1(C)Cc2ccccc2C(=C(N=Nc2cccc(Cl)c2)C(N)=O)N1 [C, 2-(3-chloro-phenylazo)-2-(3,3-dimethyl-3,4-dihydro-2H-isoquinoline-1-ylidene)-acetamide] | maintained the expression of the Oct-3/4 gene | – |
| CC1(C)Cc2ccccc2C(=C(N=Nc2cccc([N+](=O)[O-])c2)C(N)=O)N1 [E, 2-(3,3-dimethyl-3,4-dihydro-2H-isoquinoline-1-ylidene)-2-(3-nitro-phenylazo)-acetamide] | maintained the expression of the Oct-3/4 gene | – |
| CC(=O)c1ccc(/N=N/C(C(N)=O)=C2/NC(C)(C)Cc3ccccc32)cc1 [compound B, 2-(4-acetyl-phenylazo)-2-(3,3-dimethyl-3,4-dihydro-2H-isoquinoline-1-ylidene)-acetamide] | significantly promoted | comparable with 1,000 units/mL of ESGRO |
